Results reported in patent US20030036111A1, “Mitochondrial protein” (priority 2001, published 2003).
Entries after “also recorded” stand apart in the source; their conditions may differ.

Key:
Format in all cases: biochemical
[1] = molecular target: T1, human DNC (mitochondrial deoxynucleotide carrier) (Homo sapiens, UniProt Q9HC21); experiment: Inhibition of [α-35S]dATP uptake (dATP/ADP exchange) by external substrates and carrier inhibitors; settings: for Ki, competitive inhibition of [α-35 S]dATP uptake by external substrate: internal ADP or dADP 10 mM; for Ki: read-out: Ki, competitive inhibition of [α-35 S]dATP uptake by external substrate
T1 construct: Amino acids are numbered from 1-320; made in house; host or cells: E. coli BL21(DE3), pET21b; inclusion bodies solubilized in sarkosyl, Ni-NTA purified
T1 sequence (Q9HC21 2-320 limits assumed): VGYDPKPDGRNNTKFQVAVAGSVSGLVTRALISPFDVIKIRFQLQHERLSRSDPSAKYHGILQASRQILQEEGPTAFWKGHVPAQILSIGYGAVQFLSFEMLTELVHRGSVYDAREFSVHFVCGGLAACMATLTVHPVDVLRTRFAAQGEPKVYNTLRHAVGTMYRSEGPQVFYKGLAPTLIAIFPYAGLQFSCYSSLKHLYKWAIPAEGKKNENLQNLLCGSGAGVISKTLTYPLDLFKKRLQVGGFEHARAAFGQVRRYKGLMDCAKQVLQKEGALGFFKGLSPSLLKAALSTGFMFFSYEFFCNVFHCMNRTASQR

[2] = molecular target: T1, human DNC (mitochondrial deoxynucleotide carrier); experiment: Dependence of DNC activity ([α-35S]dATP uptake) on internal substrate; settings: internal substrate 10 mM; for rate of [α-35 S]dATP uptake into proteoliposomes with internal substrate: 2 min
Method: FIG. 3. Time course of dATP/ADP exchange and substrate specificity of human DNC. (a) Time course of [α-35 S]dATP/ADP exchange in proteoliposomes reconstituted with the recombinant DNC. [α-35 S]dATP (1 mM) was added to proteoliposomes containing 10 mM ADP (⋄) or 10 mM NaCl (∇). (b) Dependence of DNC activity on internal substrate. Proteoliposomes were preloaded internally with various substrates (concentration 10 mM). Trans-port was started by addition of […] [α-35 S]dATP and stopped after 2 min. The values are means 6 SD of at least three experiments. (c) Inhibition of the rate of [α-35 S]dATP uptake by external substrates. Proteoliposomes were preloaded internally with 10 mM ADP. […] External substrates (concentration 0.5 mM) were added together with [α-35 S]dATP. The extents of inhibition (%) from a representative experiment are reported.
The recombinant protein in sarkosyl was reconstituted into liposomes in the presence of substrates (10). […] Transport was measured at 25° C. with internal and external pHs at 6.8. It was started by adding [α-35S]dATP or [^14C]-ADP and terminated after 2 min by addition of 100 mM of p-chloromercuribenzene sulfonate (10). Entrapped radioactivity was counted (10). The initial transport rate was calculated from the radioactivity taken up by proteoliposomes within 2 min (in the initial linear range). Other transport activities were assayed similarly (10).

[3] = molecular target: T1, human DNC (mitochondrial deoxynucleotide carrier); experiment: Inhibition of [α-35S]dATP uptake (dATP/ADP exchange) by external substrates and carrier inhibitors; settings: external substrates 0.5 mM; internal 10 mM ADP; 125 mM [α-35 S]dATP; 2 min
Method: FIG. 3. Time course of dATP/ADP exchange and substrate specificity of human DNC. (a) Time course of [α-35 S]dATP/ADP exchange in proteoliposomes reconstituted with the recombinant DNC. [α-35 S]dATP (1 mM) was added to proteoliposomes containing 10 mM ADP (⋄) or 10 mM NaCl (∇). (b) Dependence of DNC activity on internal substrate. Proteoliposomes were preloaded internally with various substrates (concentration 10 mM). Trans-port was started by addition of […] [α-35 S]dATP and stopped after 2 min. The values are means 6 SD of at least three experiments. (c) Inhibition of the rate of [α-35 S]dATP uptake by external substrates. Proteoliposomes were preloaded internally with 10 mM ADP. Transport was started by adding […] [α-35 S]dATP and stopped after 2 min. External substrates (concentration 0.5 mM) were added together with [α-35 S]dATP. The extents of inhibition (%) from a representative experiment are reported.
The recombinant protein in sarkosyl was reconstituted into liposomes in the presence of substrates (10). Both cardiolipin (1.14 mg/ml) and EDTA (1 mM) were added. Transport was measured at 25° C. with internal and external pHs at 6.8. It was started by adding [α-35S]dATP or [^14C]-ADP and terminated after 2 min by addition of 100 mM of p-chloromercuribenzene sulfonate (10). Entrapped radioactivity was counted (10). The initial transport rate was calculated from the radioactivity taken up by proteoliposomes within 2 min (in the initial linear range). Other transport activities were assayed similarly (10).

[4] = inhibitor 2 mM, internal 10 mM ADP, 2 min
[5] = inhibitor 10 mM, internal 10 mM ADP, 2 min
[6] = inhibitor 0.1 mM, internal 10 mM ADP, 2 min

Row | Molecule | rate of [α-35 S]dATP uptake into proteoliposomes with internal substrate [2] | effect of external substrate on [α-35 S]dATP/ADP exchange [3] | also measured
1 | O=C(O)c1cccc(C(=O)O)c1C(=O)O [1,2,3-benzenetricarboxylate] | – | – | dATP/ADP exchange rate reduced to (remaining rate) [1, 4]: 40%
2 | Nc1ncnc2c1ncn2[C@@H]1O[C@H](COP(=O)(O)OP(=O)(O)OP(=O)(O)O)[C@@H](O)[C@H]1O [ATP] | lower rate | – | –
3 | Nc1ccn([C@@H]2O[C@H](COP(=O)(O)OP(=O)(O)O)[C@@H](O)[C@H]2O)c(=O)n1 [CDP] | significant activities | – | –
4 | Nc1nc2c(ncn2[C@@H]2O[C@H](COP(=O)(O)OP(=O)(O)O)[C@@H](O)[C@H]2O)c(=O)[nH]1 [GDP] | significant activities; also recorded: rather poorly | – | –
5 | CCN1C(=O)C=CC1=O [N-ethylmaleimide] | – | – | inhibition of uptake of [α-35 S]dATP [1, 4]: No significant inhibition
6 | NC(=O)C1=CN([C@@H]2O[C@H](COP(=O)(O)OP(=O)(O)OC[C@H]3O[C@@H](n4cnc5c(N)ncnc54)[C@H](O)[C@@H]3O)[C@@H](O)[C@H]2O)C=CC1 [NADH] | virtually no activity | – | –
7 | O=c1ccn([C@@H]2O[C@H](COP(=O)(O)OP(=O)(O)O)[C@@H](O)[C@H]2O)c(=O)[nH]1 [UDP] | significant activities | – | –
8 | N#CC(=Cc1ccc(O)cc1)C(=O)O [a-cyano-4-hydroxycinnamate] | – | – | inhibition of uptake of [α-35 S]dATP [1, 4]: No significant inhibition
9 | Nc1ncnc2nc[nH]c12 [adenine] | virtually no activity | no effect | –
10 | Nc1ncnc2c1ncn2[C@@H]1O[C@H](CO)[C@@H](O)[C@H]1O [adenosine] | virtually no activity | no effect | –
11 | c1ccc(-c2ccnc3c2ccc2c(-c4ccccc4)ccnc23)cc1 [bathophenathroline] | – | – | inhibition of uptake of [α-35 S]dATP [1, 5]: 41%
12 | CO[C@H](C/C=C\C=C\CC/C=C/C[C@H](C)/C=C/C(=C\C(=O)O)CC(=O)O)/C(C)=C\C=C(/C)C(=O)O [bongkrekate] | – | – | inhibition of uptake of [α-35 S]dATP ([1]; inhibitor 0.01 mM, internal 10 mM ADP, 2 min): 37%
13 | CCCCC(C(=O)O)C(=O)O [butylmalonate] | – | – | inhibition of uptake of [α-35 S]dATP [1, 4]: No significant inhibition
14 | C=C1[C@@H]2CC[C@H]3[C@]4(C)C[C@H](O[C@@H]5O[C@H](CO)[C@@H](OS(=O)(=O)O)[C@H](OS(=O)(=O)O)[C@H]5OC(=O)CC(C)C)CC(C(=O)O)(C(=O)O)[C@H]4CC[C@]3(C2)[C@H]1O [carboxyatractyloside] | – | – | inhibition of uptake of [α-35 S]dATP [1, 6]: 42%
15 | O=C(O)CC(O)(CC(=O)O)C(=O)O [citrate] | virtually no activity | – | –
16 | Nc1ccn([C@@H]2O[C@H](CO)[C@@H](O)[C@H]2O)c(=O)n1 [cytidine] | virtually no activity | no effect | –
17 | C=C1[C@@H](C)[C@H]2[C@H](Cc3ccccc3)NC(=O)[C@]23OC(=O)/C=C/[C@H](O)CCC[C@@H](C)C/C=C/[C@H]3[C@@H]1O [cytochalasin B] | – | – | inhibition of uptake of [α-35 S]dATP ([1]; inhibitor 0.033 mM, internal 10 mM ADP, 2 min): No significant inhibition
18 | Nc1cc[nH]c(=O)n1 [cytosine] | virtually no activity | no effect | –
19 | O=c1ccn([C@H]2C[C@H](O)[C@@H](COP(=O)(O)OP(=O)(O)O)O2)c(=O)[nH]1 [dUDP] | – | – | Ki, competitive inhibition of [α-35 S]dATP uptake by external substrate [1]: higher

Row | Molecule | rate of [α-35 S]dATP uptake into proteoliposomes with internal substrate [2] | effect of external substrate on [α-35 S]dATP/ADP exchange [3] | also measured
20 | O=c1ccn([C@H]2C[C@H](O)[C@@H](COP(=O)(O)OP(=O)(O)OP(=O)(O)O)O2)c(=O)[nH]1 [dUTP] | – | – | Ki, competitive inhibition of [α-35 S]dATP uptake by external substrate [1]: higher
21 | Nc1ncnc2c1ncn2[C@H]1CC[C@@H](COP(=O)(O)OP(=O)(O)OP(=O)(O)O)O1 [ddATP] | – | – | Ki [1]: 25 µM
22 | Nc1ccn([C@H]2CC[C@@H](COP(=O)(O)OP(=O)(O)OP(=O)(O)O)O2)c(=O)n1 [ddCTP] | – | – | Ki [1]: 70 µM
23 | Nc1ncnc2c1ncn2[C@H]1C[C@H](O)[C@@H](CO)O1 [deoxyadenosine] | virtually no activity | no effect | –
24 | Nc1ccn([C@H]2C[C@H](O)[C@@H](CO)O2)c(=O)n1 [deoxycytidine] | virtually no activity | no effect | –
25 | Nc1nc2c(ncn2[C@H]2C[C@H](O)[C@@H](CO)O2)c(=O)[nH]1 [deoxyguanosine] | virtually no activity | no effect | –
26 | Cc1cn([C@H]2C[C@H](O)[C@@H](CO)O2)c(=O)[nH]c1=O [deoxythymidine] | virtually no activity | no effect | –
27 | O=c1ccn([C@H]2C[C@H](O)[C@@H](CO)O2)c(=O)[nH]1 [deoxyuridine] | virtually no activity | no effect | –
28 | NCC(=O)O [glycine] | virtually no activity | – | –
29 | Nc1nc2nc[nH]c2c(=O)[nH]1 [guanine] | virtually no activity | no effect | –
30 | Nc1nc2c(ncn2[C@@H]2O[C@H](CO)[C@@H](O)[C@H]2O)c(=O)[nH]1 [guanosine] | virtually no activity | no effect | –
31 | O=S(=O)([O-])c1cc[c]([Hg][Cl])cc1 [p-chloromercuribenzene sulfonate] | – | – | inhibition of uptake of [α-35 S]dATP [1, 6]: completely
32 | O=C(O)CC(C(=O)O)c1ccccc1 (centres unmarked) [phenylsuccinate] | – | – | inhibition of uptake of [α-35 S]dATP [1, 4]: No significant inhibition
33 | Cc1ncc(COP(=O)(O)O)c(C=O)c1O [pyridoxal 5′-phosphate] | – | – | inhibition of uptake of [α-35 S]dATP [1, 5]: completely
34 | O=P(O)(O)OP(=O)(O)O [pyrophosphate] | much lower activities | – | exchange relative to ADP exchange ([2]; [α-35 S]dATP uptake): 22%
35 | Cc1c[nH]c(=O)[nH]c1=O [thymine] | virtually no activity | no effect | –
36 | dADP | highest rates | – | –
37 | phosphate | virtually no activity | – | –
